Measurements: patent US8420630B2 (Boehringer Ingelheim Pharma GmbH & Co. KG, priority 2001, dated 2013)
Structures can show the parent of a compound that is named as a salt.

Each compound was assayed against T1, CDK1/cyclinB1 (Homo sapiens, UniProt P06493) (assay: Cyclin B1-CDK1 kinase inhibition test). Conditions: CDK1 tests (Example 13); recombinant cyclin B1/CDK1, substrate histone H1; read-out: CDK1/cyclinB1 IC50 value.
T1 construct: made in house; host or cells: High Five insect cells (Trichoplusia ni), baculovirus coinfection
T1 sequence (P06493 whole entry): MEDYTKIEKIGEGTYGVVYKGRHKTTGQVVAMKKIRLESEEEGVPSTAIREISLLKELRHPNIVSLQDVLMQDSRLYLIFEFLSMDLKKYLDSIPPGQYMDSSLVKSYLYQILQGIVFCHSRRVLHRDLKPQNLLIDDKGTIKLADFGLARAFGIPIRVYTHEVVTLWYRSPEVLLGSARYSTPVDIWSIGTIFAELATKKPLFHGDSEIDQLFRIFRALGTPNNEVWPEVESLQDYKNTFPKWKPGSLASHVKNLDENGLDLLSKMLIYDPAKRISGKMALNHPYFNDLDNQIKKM
T1 sequence (P14635 whole entry partner): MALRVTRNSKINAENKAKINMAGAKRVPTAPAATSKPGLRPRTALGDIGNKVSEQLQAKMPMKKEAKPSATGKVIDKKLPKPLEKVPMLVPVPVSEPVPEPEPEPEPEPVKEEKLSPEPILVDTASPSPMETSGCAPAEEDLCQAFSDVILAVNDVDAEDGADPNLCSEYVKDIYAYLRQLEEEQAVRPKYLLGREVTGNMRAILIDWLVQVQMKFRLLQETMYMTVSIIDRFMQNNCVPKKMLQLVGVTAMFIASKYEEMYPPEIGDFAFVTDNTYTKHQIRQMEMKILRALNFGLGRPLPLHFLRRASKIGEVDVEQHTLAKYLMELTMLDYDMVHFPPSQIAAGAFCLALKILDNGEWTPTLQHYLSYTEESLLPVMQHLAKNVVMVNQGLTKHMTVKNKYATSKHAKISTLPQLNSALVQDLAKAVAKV
Assay type: biochemical
How it was run: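 Baculovirus-expressed CDK1/cyclin B1 phosphorylated histone H1 with ATP mix containing 0.045 mM ATP plus ^33P-ATP for 30 min at 30 °C. Protein was precipitated with TCA and filter-bound radioactivity read by scintillation counting. Olomoucin at 30 and 300 μM final served as internal control.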

Row | SMILES | IC50
1 | CC(C)COC(=O)NCCCNc1nc(Nc2ccc3cnn(C)c3c2)ncc1C(F)(F)F [Example 7(024)] | < 100 nM
2 | NCCCCCNc1nc(Nc2cccc(Cl)c2)ncc1C(F)(F)F [Example 1(077), 2-(3-chloro-phenylamino)-4-(5-amino-1-pentylamino)-5-trifluoromethyl-pyrimidine] | < 100 nM
3 | NC1CCCC(Nc2nc(Nc3cc(Cl)cc(Cl)c3)ncc2C(F)(F)F)C1 (centres unmarked) [Example 1(020), 2-(3,5-dichloro-phenylamino)-4-(3-amino-cyclohexylamino)-5-trifluoromethyl-pyrimidine] | < 100 nM
4 | NCCCOCCCNc1nc(Nc2ccc(Cl)c(Cl)c2)ncc1C(F)(F)F [Example 1(073)] | < 100 nM
5 | O=[N+]([O-])c1ccc(Nc2ncc([N+](=O)[O-])c(N3CCc4[nH]cnc4C3)n2)cc1 [Example 1(027), 2-(4-nitro-phenylamino)-4-(1,4,6,7-tetrahydro-imidazo[4,5-c]pyridin-5-yl)-5-nitro-pyrimidine] | < 100 nM
6 | O[C@H]1CC[C@@H](Nc2nc(Nc3ccc(Cl)c(Cl)c3)ncc2C(F)(F)F)CC1 [Example 1(037), 2-(3,4-dichloro-phenylamino)-4-(cis-4-hydroxy-cyclohexylamino)-5-trifluoromethyl-pyrimidine] | < 100 nM
7 | NC1CCC(Nc2nc(Nc3ccc(C(=O)O)cc3)ncc2C(F)(F)F)CC1 (centres unmarked) [Example 1(111), 2-(4-carboxyphenylamino)-4-(4-amino-cyclohexylamino)-5-trifluoromethyl-pyrimidine] | < 100 nM
8 | NCCCNc1nc(Nc2cccc(Cl)c2)ncc1C(F)(F)F [Example 1(012), 2-(3-chlorophenylamino)-4-(3-aminopropyl-amino)-5-trifluoromethyl-pyrimidine] | < 100 nM
9 | COc1cc(C(O)CNc2nc(Nc3ccc(Cl)c(Cl)c3)ncc2C(F)(F)F)ccc1O (centres unmarked) [Example 1(053), 2-(3,4-dichloro-phenylamino)-4-(2-(4-hydroxy-3-methoxy-phenyl)-2-hydroxy-1-ethylamino)-5-trifluoromethyl-pyrimidine] | < 100 nM
10 | NCC1CCN(c2nc(Nc3ccc(Br)cc3)ncc2C(F)(F)F)CC1 [Example 1(043)] | < 100 nM
11 | FC(F)(F)c1cnc(Nc2cccc(Cl)c2)nc1N1CCc2[nH]cnc2C1 [Example 1(005), 2-(3-chlorophenylamino)-4-(1,4,6,7-tetrahydro-imidazo[4,5-c]pyridin-5-yl)-5-trifluoromethyl-pyrimidine] | < 100 nM
12 | CN(C)[C@H]1CC[C@H](Nc2nc(Nc3ccc(C(=O)O)cc3)ncc2[N+](=O)[O-])CC1 [Example 1(018), 2-(4-carboxy-phenylamino)-4-(trans-4-dimethylamino-cyclohexylamino)-5-nitro-pyrimidine] | < 100 nM
13 | CN1CCC(N(C)c2nc(Nc3ccc(Cl)cc3)ncc2[N+](=O)[O-])CC1 [Example 1(044), 2-(4-chloro-phenylamino)-4-(N-(1-methyl-piperidin-4-yl)-N-methyl-amino)-5-nitro-pyrimidine] | < 100 nM
14 | COCCNc1nc(Nc2ccc(Cl)c(Cl)c2)ncc1C(F)(F)F [Example 1(093), 2-(3,4-dichloro-phenylamino)-4-(2-methoxy-1-ethylamino)-5-trifluoromethyl-pyrimidine] | < 100 nM
15 | NC(=O)c1cccc(Nc2ncc([N+](=O)[O-])c(N3CCc4[nH]cnc4C3)n2)c1 [Example 1(022), 2-(3-aminocarbonyl-phenylamino)-4-(1,4,6,7-tetrahydro-imidazo[4,5-c]pyridin-5-yl)-5-nitro-pyrimidine] | < 100 nM
16 | NCCNc1nc(Nc2ccc(Cl)c(Cl)c2)ncc1C(F)(F)F [Example 1(080), 2-(3,4-dichloro-phenylamino)-4-(2-amino-1-ethylamino)-5-trifluoromethyl-pyrimidine] | < 100 nM

The next lines start with the values.

Row | IC50 | SMILES
17 | < 100 nM | CC(=O)NCCNc1nc(Nc2ccc(N)cc2)ncc1C(F)(F)F [Example 2(004), N-{2-[2-(4-amino-phenylamino)-5-trifluoromethyl-pyrimidin-4-ylamino]-ethyl}-acetamide]
18 | < 100 nM | CC(=O)NCCNc1nc(Nc2cccc(Cl)c2)ncc1C(F)(F)F [Example 2(009), 2-(3-chloro-phenylamino)-4-(2-acetylamino-ethylamino)-5-trifluoromethyl-pyrimidine]
19 | < 100 nM | CC(=O)NCCNc1nc(Nc2ccc(Cl)c(Cl)c2)ncc1Br [Example 2(002), 2-(3,4-dichlorophenylamino)-4-(2-acetylamino-ethylamino)-5-bromo-pyrimidine-hydrochloride]
20 | < 100 nM | Clc1cnc(Nc2ccc3cn[nH]c3c2)nc1N1CCc2[nH]cnc2C1 [Example 2(134), [5-Chloro-4-(1,4,6,7-tetrahydro-imidazo[4,5-c]pyridin-5-yl)-pyrimidin-2-yl]-(1H-indazol-6-yl)-amine]
21 | < 100 nM | O=C1NCCN1CCNc1nc(Nc2ccc(S(=O)(=O)N3CCOCC3)cc2)ncc1C(F)(F)F [Example 2(051), 1-(2-{2-[4-(Morpholin-4-sulphonyl)-phenylamino]-5-trifluoromethyl-pyrimidin-4-ylamino}-ethyl)-imidazolidin-2-one]
22 | < 100 nM | CC(=O)N(C)CCN(C)c1nc(Nc2ccc(S(=O)(=O)N(C)C)cc2)ncc1C(F)(F)F [Example 1(690), N-(2-{[2-(4-dimethylsulphamoyl-phenylamino)-5-trifluoromethyl-pyrimidin-4-yl]-methyl-amino}-ethyl)-N-methyl-acetamide]
23 | < 100 nM | CN(C)S(=O)(=O)c1ccc(Nc2ncc(Cl)c(NCCCN3CCCC3=O)n2)cc1 [Example 2(109), 4-{5-Chloro-4-[3-(2-oxo-pyrrolidin-1-yl)-propylamino]-pyrimidin-2-ylamino}-N,N-dimethyl-phenylsulphonamide]
24 | < 100 nM | CC(=O)NCCNc1nc(Nc2ccc(C(=O)NCc3cc(F)cc(F)c3)cc2)ncc1C(F)(F)F [Example 8(026), 4-[4-(2-acetylamino-ethylamino)-5-trifluoromethyl-pyrimidin-2-ylamino]-N-(3,5-difluorobenzyl)-benzamide]
25 | < 100 nM | CC(=O)NCCNc1nc(Nc2ccc(C(N)=O)cc2)ncc1Br [Example 1(663), 4-[4-(2-acetylamino-ethylamino)-5-bromo-pyrimidin-2-ylamino]-benzamide]
26 | < 100 nM | COCC(=O)NCCCNc1nc(Nc2ccc3cnn(C)c3c2)ncc1C(F)(F)F [Example 7(013), 2-methoxy-N-{3-[2-(1-methyl-1H-indazol-6-ylamino)-5-trifluoromethyl-pyrimidin-4-ylamino]-propyl}-acetamide]
27 | < 100 nM | CCC(=O)NCCCNc1nc(Nc2ccc3cnn(C)c3c2)ncc1C(F)(F)F [Example 7(006), N-{3-[2-(1-methyl-1H-indazol-6-ylamino)-5-trifluoromethyl-pyrimidin-4-ylamino]-propyl}-propionamide]
28 | < 100 nM | CC(=O)NCCNc1nc(Nc2cccc([N+](=O)[O-])c2)ncc1C(F)(F)F [Example 2(010), 2-(3-Nitro-phenylamino)-4-(2-acetylamino-ethylamino)-5-trifluoromethyl-pyrimidine]
29 | < 100 nM | O=C1CCCN1CCCNc1nc(Nc2ccc3[nH]cnc3c2)ncc1C(F)(F)F [Example 2(037), 1-{3-[2-(1H-Benzimidazol-5-ylamino)-5-trifluoromethyl-pyrimidin-4-ylamino]-propyl}-pyrrolidin-2-one]
30 | < 100 nM | C#Cc1cnc(Nc2ccc(S(=O)(=O)N(C)C)cc2)nc1NCCNC(C)=O [Example 4(001), N-{2-[2-(4-dimethylsulphamoyl-phenylamino)-5-ethynyl-pyrimidin-4-ylamino]-ethyl}-acetamide]
31 | < 100 nM | O=C1CCCN1CCCNc1nc(Nc2ccc3cn[nH]c3c2)ncc1C(F)(F)F [Example 2(038), 1-{3-[2-(1H-Indazol-6-ylamino)-5-trifluoromethyl-pyrimidin-4-ylamino]-propyl}-pyrrolidin-2-one]
32 | < 100 nM | CC(C)C(=O)NCCCNc1nc(Nc2ccc3cnn(C)c3c2)ncc1C(F)(F)F [Example 7(002), N-{3-[2-(1-methyl-1H-indazol-6-ylamino)-5-trifluoromethyl-pyrimidin-4-ylamino]-propyl}-isobutyramide]
33 | < 100 nM | CC(=O)NCCNc1nc(Nc2ccccc2)ncc1C(F)(F)F [Example 2(062), N-[2-(2-phenylamino-5-trifluoromethylpyrimidin-4-ylamino)-ethyl]-acetamide]
34 | < 100 nM | CC(C)NC(=O)NCCCNc1nc(Nc2ccc3cnn(C)c3c2)ncc1C(F)(F)F [Example 7(036), 1-isopropyl-3-{3-[2-(1-methyl-1H-indazol-6-ylamino)-5-trifluoromethyl-pyrimidin-4-ylamino]-propyl}-urea]
35 | < 100 nM | CC(=O)NCCNc1nc(Nc2ccc3[nH]cnc3c2)ncc1C(F)(F)F [Example 2(043), N-{2-[2-(1H-Benzimidazol-5-ylamino)-5-trifluoromethyl-pyrimidin-4-ylamino]-ethyl}-acetamide]
36 | < 100 nM | CN(C)C(=O)NCCCNc1nc(Nc2ccc3cnn(C)c3c2)ncc1C(F)(F)F [Example 7(035), 1,1-dimethyl-3-{3-[2-(1-methyl-1H-indazol-6-ylamino)-5-trifluoromethyl-pyrimidin-4-ylamino]-propyl}-urea]
37 | < 100 nM | NCCCCNc1nc(Nc2ccc(Cl)c(Cl)c2)ncc1C(F)(F)F [Example 1(304), 2-(3,4-dichlorophenylamino)-4-(4-aminobutylamino)-5-trifluoromethyl-pyrimidine]
38 | < 100 nM | O=C1CCCN1CCCNc1nc(Nc2cccc(CNCC(F)(F)F)c2)ncc1C(F)(F)F [Example 11(034), 1-[3-(2-{3-[(2,2,2-Trifluoro-ethylamino)-methyl]-phenylamino}-5-trifluoromethyl-pyrimidin-4-ylamino)-propyl]-pyrrolidin-2-one]
